Assays:
Assay in all cases: selectivity of inhibitors across other TLRs – RAW264.7 cells, luminescence, powder samples, selectivity assay for TLR9 inhibitor project, late-stage follow-up (AID 720520); call rule not given here
TLR2 = conditions: RAW264.7 TLR2/4/7-8 NFkB-luciferase reporter, 6 h, with MALP-2 50 ng/mL
TLR7/8 = conditions: RAW264.7 TLR2/4/7-8 NFkB-luciferase reporter, 6 h, with R848 1 µg/mL
TLR4 = conditions: RAW264.7 TLR2/4/7-8 NFkB-luciferase reporter, 6 h, with LPS 0.1 µg/mL

Measured: IC50

COc1ccc(C[C@@H]2OC3(C=CC(=O)C=C3)O[C@H]2Cc2ccc(OC)cc2)cc1
active: TLR2 58 nM | TLR7/8 80 nM | TLR4 72 nM

O=S(=O)(/C=C/C=C/S(=O)(=O)c1ccccc1)c1ccccc1
active: TLR2 126 nM | TLR7/8 93 nM | TLR4 126 nM

O=C1C=CC2(C=C1)O[C@H](Cc1ccccc1)[C@@H](Cc1ccccc1)O2
active: TLR2 226 nM | TLR7/8 245 nM | TLR4 226 nM
